Patent US10787450B2 (BRISTOL-MYERS SQUIBB COMPANY, priority 2016, dated 2020)
Where a name gives a salt, the structure may show the parent alone.

These compounds were tested against ROCK2 (Homo sapiens (Human), UniProt O75116) (assay: ROCK2 kinase inhibition assay (FITC peptide substrate, LABCHIP 3000 Reader)). Details: 5 μM ATP, 1.5 μM peptide substrate.
Format: biochemical
In short: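 IC50 derived by curve fitting of dose-response inhibition, read as separation of phosphorylated from unphosphorylated FITC peptide (1.5 μM) after EDTA stop. Buffer: HEPES pH 7.5, MgCl2, Brij-35, DTT; ATP 5 μM; final DMSO <2%; reaction initiated by Rho kinase addition.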

Chain of ROCK2 (O75116 whole entry, species assumed): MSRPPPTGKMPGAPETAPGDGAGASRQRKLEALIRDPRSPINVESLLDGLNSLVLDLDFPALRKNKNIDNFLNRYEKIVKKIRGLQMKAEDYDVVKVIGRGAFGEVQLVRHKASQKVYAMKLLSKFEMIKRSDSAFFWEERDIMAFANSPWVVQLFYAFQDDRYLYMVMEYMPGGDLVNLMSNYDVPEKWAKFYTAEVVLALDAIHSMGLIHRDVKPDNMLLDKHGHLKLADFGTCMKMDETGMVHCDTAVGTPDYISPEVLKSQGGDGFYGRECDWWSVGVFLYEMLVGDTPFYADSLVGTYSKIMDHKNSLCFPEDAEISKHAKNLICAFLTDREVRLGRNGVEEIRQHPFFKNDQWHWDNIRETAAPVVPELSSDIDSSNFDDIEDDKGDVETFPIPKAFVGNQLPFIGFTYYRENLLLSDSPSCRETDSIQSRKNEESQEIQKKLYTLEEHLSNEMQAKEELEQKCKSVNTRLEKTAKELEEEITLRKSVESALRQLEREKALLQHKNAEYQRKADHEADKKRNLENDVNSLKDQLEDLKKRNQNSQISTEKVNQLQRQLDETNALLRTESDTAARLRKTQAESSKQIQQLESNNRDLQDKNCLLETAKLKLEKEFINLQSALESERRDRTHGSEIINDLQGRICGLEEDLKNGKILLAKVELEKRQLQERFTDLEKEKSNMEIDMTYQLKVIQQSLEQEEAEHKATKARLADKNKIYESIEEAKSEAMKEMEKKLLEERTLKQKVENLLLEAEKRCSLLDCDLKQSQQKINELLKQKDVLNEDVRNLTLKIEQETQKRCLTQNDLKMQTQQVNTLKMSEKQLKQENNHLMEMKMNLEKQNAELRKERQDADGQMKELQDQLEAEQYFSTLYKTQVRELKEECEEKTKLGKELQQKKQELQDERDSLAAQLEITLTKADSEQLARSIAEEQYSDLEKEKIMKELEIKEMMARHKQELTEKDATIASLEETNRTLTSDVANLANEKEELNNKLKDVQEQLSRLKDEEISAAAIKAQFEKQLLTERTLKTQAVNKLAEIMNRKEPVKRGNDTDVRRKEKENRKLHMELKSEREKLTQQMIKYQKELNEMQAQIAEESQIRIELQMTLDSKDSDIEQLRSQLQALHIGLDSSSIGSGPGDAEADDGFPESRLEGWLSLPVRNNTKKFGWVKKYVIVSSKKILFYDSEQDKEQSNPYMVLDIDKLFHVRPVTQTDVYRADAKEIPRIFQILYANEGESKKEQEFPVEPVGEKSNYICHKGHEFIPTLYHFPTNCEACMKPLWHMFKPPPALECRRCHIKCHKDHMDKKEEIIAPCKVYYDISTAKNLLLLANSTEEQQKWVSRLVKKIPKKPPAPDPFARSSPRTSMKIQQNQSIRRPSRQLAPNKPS

IC50 [nM]	Structure (SMILES)
< 3	CCc1nc(N2CC3(CCN(CC(C)(C)O)CC3)N(Cc3cccc(OC)c3)C2=O)ccc1-c1cn[nH]c1 [Example 152, 3-(6-ethyl-5-(1H-pyrazol-4-yl)pyridin-2-yl)-8-(2-hydroxy-2-methylpropyl)-1-(3-methoxybenzyl)-1,3,8-triazaspiro[4.5]decan-2-one]
< 3	CCc1nc(N2CC3(CCN(CCO)CC3)N(Cc3cc(F)cc(OC)c3)C2=O)ccc1-c1cn[nH]c1 [Example 153, 3-(6-ethyl-5-(1H-pyrazol-4-yl)pyridin-2-yl)-1-(3-fluoro-5-methoxybenzyl)-8-(2-hydroxyethyl)-1,3,8-triazaspiro[4.5]decan-2-one]
< 3	CCc1nc(N2CC3(CCN(CC(C)O)CC3)N(Cc3cc(F)cc(OC)c3)C2=O)ccc1-c1cn[nH]c1 (stereo not drawn) [Example 154, 3-(6-ethyl-5-(1H-pyrazol-4-yl)pyridin-2-yl)-1-(3-fluoro-5-methoxybenzyl)-8-(2-hydroxypropyl)-1,3,8-triazaspiro[4.5]decan-2-one]
< 3	CCc1nc(N2CC3(CCN(CC(C)(C)O)CC3)N(Cc3cc(F)cc(OC)c3)C2=O)ccc1-c1cn[nH]c1 [Example 155, 3-(6-ethyl-5-(1H-pyrazol-4-yl)pyridin-2-yl)-1-(3-fluoro-5-methoxybenzyl)-8-(2-hydroxy-2-methylpropyl)-1,3,8-triazaspiro[4.5]decan-2-one]
< 3	CCc1nc(N2CC3(CCN(CC(C)O)CC3)N(Cc3cccc(F)c3C)C2=O)ccc1-c1cn[nH]c1 (stereo not drawn) [Example 156, 3-(6-ethyl-5-(1H-pyrazol-4-yl)pyridin-2-yl)-1-(3-fluoro-2-methylbenzyl)-8-(2-hydroxypropyl)-1,3,8-triazaspiro[4.5]decan-2-one]
< 3	COc1cc(F)cc(CN2C(=O)N(c3ccc(-c4cn[nH]c4)cc3)CC23CCN(CC(C)O)CC3)c1 (stereo not drawn) [Example 157, 3-(4-(1H-pyrazol-4-yl)phenyl)-1-(3-fluoro-5-methoxybenzyl)-8-(2-hydroxypropyl)-1,3,8-triazaspiro[4.5]decan-2-one]
< 3	COc1cccc(CN2C(=O)N(c3ccc(-c4cn[nH]c4)cn3)CC23CCN(CCO)CC3)c1 [Example 159, 3-(5-(1H-pyrazol-4-yl)pyridin-2-yl)-8-(2-hydroxyethyl)-1-(3-methoxybenzyl)-1,3,8-triazaspiro[4.5]decan-2-one]
3 to 30	COc1cccc(CN2C(=O)N(c3ccc(-c4cn[nH]c4)cn3)CC23CCN(CC(C)O)CC3)c1 (stereo not drawn) [Example 160, 3-(5-(1H-pyrazol-4-yl)pyridin-2-yl)-8-(2-hydroxypropyl)-1-(3-methoxybenzyl)-1,3,8-triazaspiro[4.5]decan-2-one]
< 3	COc1cccc(CN2C(=O)N(c3ccc(-c4cn[nH]c4)cn3)CC23CCN(CC(C)(C)O)CC3)c1 [Example 161, 3-(5-(1H-pyrazol-4-yl)pyridin-2-yl)-8-(2-hydroxy-2-methylpropyl)-1-(3-methoxybenzyl)-1,3,8-triazaspiro[4.5]decan-2-one]
< 3	COCCN1CCC2(CC1)CN(c1ccc(-c3cn[nH]c3)cn1)C(=O)N2Cc1cccc(OC)c1 [Example 162, 3-(5-(1H-pyrazol-4-yl)pyridin-2-yl)-1-(3-methoxybenzyl)-8-(2-methoxyethyl)-1,3,8-triazaspiro[4.5]decan-2-one]
3 to 30	COc1cccc(CN2C(=O)N(c3ncc(-c4cn[nH]c4)c(OC)n3)CC23CCN(CC(C)(C)O)CC3)c1 [Example 163, 8-(2-hydroxy-2-methylpropyl)-3-(4-methoxy-5-(1H-pyrazol-4-yl)pyrimidin-2-yl)-1-(3-methoxybenzyl)-1,3,8-triazaspiro[4.5]decan-2-one]
< 3	COCCN1CCC2(CC1)CN(c1ccc(-c3cn[nH]c3)c(OC)n1)C(=O)N2Cc1cccc(F)c1C [Example 165, 1-(3-fluoro-2-methylbenzyl)-3-(6-methoxy-5-(1H-pyrazol-4-yl)pyridin-2-yl)-8-(2-methoxyethyl)-1,3,8-triazaspiro[4.5]decan-2-one]
< 3	COc1nc(N2CC3(CCN(CC(C)O)CC3)N(Cc3cccc(F)c3C)C2=O)ccc1-c1cn[nH]c1 (stereo not drawn) [Example 166, 1-(3-fluoro-2-methylbenzyl)-8-(2-hydroxypropyl)-3-(6-methoxy-5-(1H-pyrazol-4-yl)pyridin-2-yl)-1,3,8-triazaspiro[4.5]decan-2-one]
< 3	COc1nc(N2CC3(CCN(CC(C)(C)O)CC3)N(Cc3cccc(F)c3C)C2=O)ccc1-c1cn[nH]c1 [Example 167, 1-(3-fluoro-2-methylbenzyl)-8-(2-hydroxy-2-methylpropyl)-3-(6-methoxy-5-(1H-pyrazol-4-yl)pyridin-2-yl)-1,3,8-triazaspiro[4.5]decan-2-one]
< 3	CNC(=O)CN1CCC2(CC1)CN(c1ccc(-c3cn[nH]c3)cc1)C(=O)N2Cc1cccc(OC)c1 [Example 168, 2-(3-(4-(1H-pyrazol-4-yl)phenyl)-1-(3-methoxybenzyl)-2-oxo-1,3,8-triazaspiro[4.5]decan-8-yl)-N-methylacetamide]
< 3	COc1cccc(CN2C(=O)N(c3ccc(-c4cn[nH]c4)cc3)CC23CCN(CC(N)=O)CC3)c1 [Example 169, 2-(3-(4-(1H-pyrazol-4-yl)phenyl)-1-(3-methoxybenzyl)-2-oxo-1,3,8-triazaspiro[4.5]decan-8-yl)acetamide]
< 3	COc1cccc(CN2C(=O)N(c3ccc(-c4cn[nH]c4)cc3)CC23CCN(CC(=O)N(C)C)CC3)c1 [Example 170, 2-(3-(4-(1H-pyrazol-4-yl)phenyl)-1-(3-methoxybenzyl)-2-oxo-1,3,8-triazaspiro[4.5]decan-8-yl)-N,N-dimethylacetamide]
< 3	COc1cccc(CN2C(=O)N(c3ccc(-c4cn[nH]c4)cc3)CC23CCN(C(=O)C2CCC(F)(F)CC2)CC3)c1 [Example 171, 3-(4-(1H-pyrazol-4-yl)phenyl)-8-(4,4-difluorocyclohexanecarbonyl)-1-(3-methoxybenzyl)-1,3,8-triazaspiro[4.5]decan-2-one]
< 3	COc1cccc(CN2C(=O)N(c3ccc(-c4cn[nH]c4)cc3)CC23CCN(C(=O)C2CCC2)CC3)c1 [Example 172, 3-(4-(1H-pyrazol-4-yl)phenyl)-8-(cyclobutanecarbonyl)-1-(3-methoxybenzyl)-1,3,8-triazaspiro[4.5]decan-2-one]
< 3	COc1cccc(CN2C(=O)N(c3ccc(-c4cn[nH]c4)cc3)CC23CCN(C(=O)C2CCOCC2)CC3)c1 [Example 173, 3-(4-(1H-pyrazol-4-yl)phenyl)-1-(3-methoxybenzyl)-8-(tetrahydro-2H-pyran-4-carbonyl)-1,3,8-triazaspiro[4.5]decan-2-one, TFA]
< 3	COc1cccc(CN2C(=O)N(c3ccc(-c4cn[nH]c4)cc3)CC23CCN(C(=O)C2CCCC2)CC3)c1 [Example 174, 3-(4-(1H-pyrazol-4-yl)phenyl)-8-(cyclopentanecarbonyl)-1-(3-methoxybenzyl)-1,3,8-triazaspiro[4.5]decan-2-one]
< 3	COc1cccc(CN2C(=O)N(c3ccc(-c4cn[nH]c4)cc3)CC23CCN(C(=O)C2CCC(F)(F)C2)CC3)c1 (stereo not drawn) [Example 175, 3-(4-(1H-pyrazol-4-yl)phenyl)-8-(3,3-difluorocyclopentane-carbonyl)-1-(3-methoxybenzyl)-1,3,8-triazaspiro[4.5]decan-2-one]
< 3	COc1cccc(CN2C(=O)N(c3ccc(-c4cn[nH]c4)cc3)CC23CCN(C(=O)CO)CC3)c1 [Example 176, 3-(4-(1H-pyrazol-4-yl)phenyl)-8-(2-hydroxyacetyl)-1-(3-methoxybenzyl)-1,3,8-triazaspiro[4.5]decan-2-one]
< 3	COc1cccc(CN2C(=O)N(c3ccc(-c4cn[nH]c4)cc3)CC23CCN(C(=O)[C@H](C)O)CC3)c1 [Example 177, (S)-3-(4-(1H-pyrazol-4-yl)phenyl)-8-(2-hydroxypropanoyl)-1-(3-methoxybenzyl)-1,3,8-triazaspiro[4.5]decan-2-one]
< 3	COc1cccc(CN2C(=O)N(c3ccc(-c4cn[nH]c4)cc3)CC23CCN(C(=O)[C@@H](C)O)CC3)c1 [Example 178, (R)-3-(4-(1H-pyrazol-4-yl)phenyl)-8-(2-hydroxypropanoyl)-1-(3-methoxybenzyl)-1,3,8-triazaspiro[4.5]decan-2-one]
3 to 30	COc1cccc(CN2C(=O)N(c3ccc(-c4cn[nH]c4)cc3)CC23CCN(C(=O)c2ccc4cc[nH]c4c2)CC3)c1 [Example 179, 3-(4-(1H-pyrazol-4-yl)phenyl)-8-(1H-indole-6-carbonyl)-1-(3-methoxybenzyl)-1,3,8-triazaspiro[4.5]decan-2-one]
3 to 30	COc1cccc(CN2C(=O)N(c3ccc(-c4cn[nH]c4)cc3)CC23CCN(C(=O)c2cnn4ccccc24)CC3)c1 [Example 180, 3-(4-(1H-pyrazol-4-yl)phenyl)-1-(3-methoxybenzyl)-8-(pyrazolo[1,5-a]pyridine-3-carbonyl)-1,3,8-triazaspiro[4.5] decan-2-one]
< 3	CCc1nc(N2CC3(CCN(C(=O)CO)CC3)N(Cc3cccc(F)c3C)C2=O)ccc1-c1cn[nH]c1 [Example 181, 3-(6-ethyl-5-(1H-pyrazol-4-yl)pyridin-2-yl)-1-(3-fluoro-2-methylbenzyl)-8-(2-hydroxyacetyl)-1,3,8-triazaspiro[4.5]decan-2-one]
< 3	CCc1nc(N2CC3(CCN(C(=O)C4COC4)CC3)N(Cc3cccc(F)c3C)C2=O)ccc1-c1cn[nH]c1 [Example 182, 3-(6-ethyl-5-(1H-pyrazol-4-yl)pyridin-2-yl)-1-(3-fluoro-2-methylbenzyl)-8-(oxetane-3-carbonyl)-1,3,8-triazaspiro[4.5]decan-2-one]
< 3	CCc1nc(N2CC3(CCN(C(=O)C(F)F)CC3)N(Cc3cccc(OC)c3)C2=O)ccc1-c1cn[nH]c1 [Example 183, 8-(2,2-difluoroacetyl)-3-(6-ethyl-5-(1H-pyrazol-4-yl)pyridin-2-yl)-1-(3-methoxybenzyl)-1,3,8-triazaspiro[4.5]decan-2-one]
